Structures are written as SMILES. pIC50: −log10 of the molar value. Where two headings read alike, the source gives them in different places.

The target of one test is T1, PRMT1 (Homo sapiens, UniProt Q99873).
T1 construct: made in house; host or cells: High Five insect cells (baculovirus)
The test can be described thus: PRMT1 Biochemical Assay. From the text:
Peptide representative of human histone H4 residues 36-50 was synthesized with an N-terminal linker-affinity tag motif and a C-terminal amide cap by 21st Century Biochemicals. The peptide was purified by high-performance liquid chromatography (HPLC) to greater than 95% purity and confirmed by liquid chromatography mass spectrometry (LC-MS). The sequence was Biot-Ahx-[…]-amide (SEQ ID NO.:1).
Full-length human PRMT1 isoform 1 (NM_001536.5) transcript clone was amplified from an HEK 293 cDNA library, incorporating flanking 5′ sequence encoding a FLAG tag ([…]) (SEQ ID NO.:2) fused directly to Met 1 of PRMT1. The amplified gene was subcloned into pFastBacI (Life Technologies) modified to encode an N-terminal GST tag and a TEV cleavage sequence
GST-tagged PRMT1 was eluted with 50 mM Tris, 2 mM glutathione, pH 7.8, dialysed in buffer A and concentrated to 1 mg/mL. The purity of recovered protein was 73%. Reference: Wasilko, D. J. and S. E. Lee: “TIPS: titerless infected-cells preservation and scale-up” Bioprocess J., 5 (2006), pp. 29-32.
General Procedure for PRMT1 Enzyme Assays on Peptide Substrates.
The assays were all performed in a buffer consisting of 20 mM Bicine (pH=7.6), 1 mM TCEP, 0.005% BSG, and 0.002% Tween 20, prepared on the day of use. Compounds in 100% DMSO (1 ul) were spotted into a polypropylene 384-well V-bottom plates (Greiner) using a Platemate Plus outfitted with a 384-channel head (Thermo Scientific). DMSO (1 ul) was added to Columns 11, 12, 23, 24, rows A-H for the maximum signal control and 1 ul of SAH, a known product and inhibitor of PRMT1, was added to columns 11, 12, 23, 24, rows I-P for the minimum signal control. A cocktail (40 ul) containing the PRMT1 enzyme was added by Multidrop Combi (Thermo-Fisher). The compounds were allowed to incubate with PRMT1 for 30 min at room temperature, then a cocktail (10 ul) containing SAM and peptide was added to initiate the reaction (final volume=51 ul). The final concentrations of the components were as follows: PRMT1 was 0.5 nM, ^3H-SAM was 200 nM, non-radiolabeled SAM was 1.5 uM, peptide was 20 nM, SAH in the minimum signal control wells was 1 mM, and the DMSO concentration was 2%. The assays were stopped by the addition of non-radiolabeled SAM (10 ul) to a final concentration of 300 uM, which dilutes the ^3H-SAM to a level where its incorporation into the peptide substrate is no longer detectable. 50 ul of the reaction in the 384-well polypropylene plate was then transferred to a 384-well Flashplate and the biotinylated peptides were allowed to bind to the streptavidin surface for at least 1 hour before being washed once with 0.1% Tween20 in a Biotek ELx405 plate washer. The plates were then read in a PerkinElmer TopCount plate reader to measure the quantity of ^3H-labeled peptide bound to the Flashplate surface, measured as disintegrations per minute (dpm) or alternatively, referred to as counts per minute (cpm).
(§1) Where dpm=disintegrations per minute, cmpd=signal in assay well, and min and max are the respective minimum and maximum signal controls.
(§2) Where top and bottom are the normally allowed to float, but may be fixed at 100 or 0 respectively in a 3-parameter fit. The Hill Coefficient normally allowed to float but may also be fixed at 1 in a 3-parameter fit. Y is the % inhibition and X is the compound concentration.

In a further test the target is T2, PRMT6 (Homo sapiens, UniProt Q96LA8).
T2 construct: Expressed full-length human Flag- and His-tagged PRMT6 protein was purified from cell paste; made in house; host or cells: HEK 293F cells (BacMam baculovirus)
As to the kind of experiment: PRMT6 Biochemical Assay.
Description: Peptide representative of human histone H4 residues 36-50 was synthesized with an N-terminal linker-affinity tag motif and a C-terminal amide cap by 21st Century Biochemicals. The peptide was purified by high-performance liquid chromatography (HPLC) to greater than 95% purity and confirmed by liquid chromatography mass spectrometry (LC-MS). The sequence was Biot-Ahx-[…]-amide and contained a monomethylated lysine at position 44 (SEQ ID NO.:5).
Full-length human PRMT6 (NM_018137.2) transcript clone was amplified from an HEK 293 cDNA library, incorporating a flanking 5′ sequence encoding a FLAG tag ([…]) (SEQ ID NO.:6) fused directly to Ser 2 of PRMT6 and a 3′ sequence encoding a hexa His sequence (HHHHHH) (SEQ ID NO.:17) fused directly to Asp 375. The amplified gene was subcloned into pFastBacMam (Viva Biotech).
Column was washed with 20 mM imidazole in the same buffer and Flag-PRMT6-His was eluted with 150 mM imidazole. Pooled fractions were dialysed against buffer Ni-A and further purified by anti-flag M2 affinity chromatography. Flag-PRMT6-His was eluted with 200 ug/ml FLAG peptide in the same buffer. Pooled fractions were dialysed in 20 mM Tris, 150 mM NaCl, 10% glycerol and 5 mM (3-mercaptoethanol, pH 7.8. The purity of recovered protein was 95%.
General Procedure for PRMT6 Enzyme Assays on Peptide Substrates.
The assays were all performed in a buffer consisting of 20 mM Bicine (pH=7.6), 1 mM TCEP, 0.005% BSG, and 0.002% Tween 20, prepared on the day of use. Compounds in 100% DMSO (1 ul) were spotted into a polypropylene 384-well V-bottom plates (Greiner) using a Platemate Plus outfitted with a 384-channel head (Thermo Scientific). DMSO (1 ul) was added to Columns 11, 12, 23, 24, rows A-H for the maximum signal control and 1 ul of SAH, a known product and inhibitor of PRMT6, was added to columns 11, 12, 23, 24, rows I-P for the minimum signal control. A cocktail (40 ul) containing the PRMT6 enzyme was added by Multidrop Combi (Thermo-Fisher). The compounds were allowed to incubate with PRMT6 for 30 min at room temperature, then a cocktail (10 ul) containing SAM and peptide was added to initiate the reaction (final volume=51 ul). The final concentrations of the components were as follows: PRMT6 was 1 nM, ^3H-SAM was 200 nM, non-radiolabeled SAM was 250 nM, peptide was 75 nM, SAH in the minimum signal control wells was 1 mM, and the DMSO concentration was 2%. The assays were stopped by the addition of non-radiolabeled SAM (10 ul) to a final concentration of 400 uM, which dilutes the ^3H-SAM to a level where its incorporation into the peptide substrate is no longer detectable. 50 ul of the reaction in the 384-well polypropylene plate was then transferred to a 384-well Flashplate and the biotinylated peptides were allowed to bind to the streptavidin surface for at least 1 hour before being washed once with 0.1% Tween20 in a Biotek ELx405 plate washer. The plates were then read in a PerkinElmer TopCount plate reader to measure the quantity of ^3H-labeled peptide bound to the Flashplate surface, measured as disintegrations per minute (dpm) or alternatively, referred to as counts per minute (cpm).
as §1, §2

Setting [1] is: Table 2, biochemical evaluation, read-out: PRMT1 IC50 (class).
[2] abbreviates: Table 2a, numerical, single experiment or average of multiple experiments, read-out: PRMT1 IC50.
[3] abbreviates: Table 2, biochemical evaluation, read-out: PRMT6 IC50 (class).
Setting [4] is: Table 2a, numerical, single experiment or average of multiple experiments, read-out: PRMT6 IC50.

T1 sequence (Q99873 with tags, fused parts or gaps): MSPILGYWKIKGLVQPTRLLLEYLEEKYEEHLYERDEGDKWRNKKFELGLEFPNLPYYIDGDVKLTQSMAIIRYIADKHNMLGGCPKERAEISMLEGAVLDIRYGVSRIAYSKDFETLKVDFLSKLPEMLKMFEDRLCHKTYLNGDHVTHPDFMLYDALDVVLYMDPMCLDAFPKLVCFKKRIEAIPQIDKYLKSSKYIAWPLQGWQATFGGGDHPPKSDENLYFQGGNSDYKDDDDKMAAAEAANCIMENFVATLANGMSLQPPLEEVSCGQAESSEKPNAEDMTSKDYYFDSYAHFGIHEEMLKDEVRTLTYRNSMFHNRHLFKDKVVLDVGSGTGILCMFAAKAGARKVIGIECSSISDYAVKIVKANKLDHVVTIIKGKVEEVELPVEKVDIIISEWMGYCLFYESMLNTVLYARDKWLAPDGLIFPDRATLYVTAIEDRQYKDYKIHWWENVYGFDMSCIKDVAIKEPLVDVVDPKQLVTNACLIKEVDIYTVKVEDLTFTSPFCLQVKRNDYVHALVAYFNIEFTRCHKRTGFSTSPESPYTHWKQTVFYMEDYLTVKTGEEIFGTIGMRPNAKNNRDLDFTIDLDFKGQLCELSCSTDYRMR
T2 sequence (Q96LA8 with tags, fused parts or gaps): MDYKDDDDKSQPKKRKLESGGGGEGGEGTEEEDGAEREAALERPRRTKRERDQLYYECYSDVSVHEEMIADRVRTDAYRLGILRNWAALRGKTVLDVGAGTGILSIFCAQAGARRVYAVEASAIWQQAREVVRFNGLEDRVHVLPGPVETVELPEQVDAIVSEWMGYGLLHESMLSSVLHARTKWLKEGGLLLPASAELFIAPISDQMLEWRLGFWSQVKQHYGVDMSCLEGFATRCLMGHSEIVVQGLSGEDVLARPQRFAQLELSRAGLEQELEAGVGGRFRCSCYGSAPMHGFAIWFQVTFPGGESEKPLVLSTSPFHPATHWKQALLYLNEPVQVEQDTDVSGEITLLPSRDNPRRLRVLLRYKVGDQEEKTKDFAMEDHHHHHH

For `CN(CCN)Cc1ncoc1-c1ccc(C#N)cc1` [Compound 1, 4-(4-(((2-aminoethyl)(methyl)amino)methyl)oxazol-5-yl)benzonitrile], the pIC50 on PRMT1 (setting [1]) was 6.00 to 7.00; at PRMT1 (setting [2]) it was 6.50; on PRMT6 (setting [3]) it was 6.00 to 7.00; at PRMT6 (setting [4]), 6.46.
In the case of `CN(CCN)Cc1ccnn1-c1ccc(C#N)cc1` [Compound 2, 4-(5-(((2-aminoethyl)(methyl)amino)methyl)-1H-pyrazol-1-yl)benzonitrile], the negative-log IC50 (pIC50) was 6.00 to 7.00 on PRMT1 (setting [1]), 6.80 at PRMT1 (setting [2]), over 7.00 on PRMT6 (setting [3]) and 7.01 at PRMT6 (setting [4]).
Taken in the same sequence, the figures for `CC(C)Oc1ccc(-n2nccc2CN(C)CCN)cc1` [Compound 8, N^1-((1-(4-isopropoxyphenyl)-1H-pyrazol-5-yl)methyl)-N^1-methylethane-1,2-diamine] were over 7.00, 7.86, over 7.00 and 7.33.
Consider `CN(CCN)Cc1nsnc1-c1ccc(C#N)cc1` [Compound 7, 4-(4-(((2-aminoethyl)(methyl)amino)methyl)-1,2,5-thiadiazol-3-yl)benzonitrile], for which the pIC50 was 6.00 to 7.00 on PRMT1 (setting [1]), 6.56 at PRMT1 (setting [2]), 6.00 to 7.00 on PRMT6 (setting [3]) and 6.95 at PRMT6 (setting [4]).
In the case of `CN(CCN)Cc1oncc1-c1ccc(F)cc1` [Compound 11, N^1-((4-(4-fluorophenyl)isoxazol-5-yl)methyl)-N^1-methylethane-1,2-diamine], the negative-log IC50 (pIC50) was 5.52 to 6.00 at PRMT1 (setting [1]), 5.57 at PRMT1 (setting [2]), 5.52 to 6.00 on PRMT6 (setting [3]) and 5.53 on PRMT6 (setting [4]).
On to `CN(CCN)Cc1ocnc1-c1ccc(C#N)cc1` [Compound 4, 4-(5-(((2-aminoethyl)(methyl)amino)methyl)oxazol-4-yl)benzonitrile], for which the pIC50 on PRMT1 (setting [1]) was 6.00 to 7.00; on PRMT1 (setting [2]) it was 6.57; at PRMT6 (setting [3]) it was 6.00 to 7.00; on PRMT6 (setting [4]), 6.78.
For `CN(CCN)Cc1n[nH]nc1-c1ccc(C#N)cc1` [Compound 3, 4-(5-(((2-aminoethyl)(methyl)amino)methyl)-2H-1,2,3-triazol-4-yl)benzonitrile], the pIC50 at PRMT1 (setting [1]) is over 7.00; at PRMT1 (setting [2]), 7.09; on PRMT6 (setting [3]) it was over 7.00; at PRMT6 (setting [4]) it was 7.15.
With `CN(CCN)Cc1cnnn1-c1ccc(C#N)cc1` [Compound 5, 4-(5-(((2-aminoethyl)(methyl)amino)methyl)-1H-1,2,3-triazol-1-yl)benzonitrile], the pIC50 at PRMT1 (setting [1]), on PRMT1 (setting [2]), at PRMT6 (setting [3]) and on PRMT6 (setting [4]) was under 5.00 each time.
For the compound `CN(CCN)Cc1cncn1-c1ccc(C#N)cc1` [Compound 6, 4-(5-(((2-aminoethyl)(methyl)amino)methyl)-1H-imidazol-1-yl)benzonitrile], the pIC50 at PRMT1 (setting [1]) is 5.52 to 6.00; at PRMT1 (setting [2]) it was 5.77; on PRMT6 (setting [3]), 5.52 to 6.00; on PRMT6 (setting [4]), 5.96.
For `CN(CCN)Cc1ccnn1-c1ccc(Oc2ccccc2)cc1` [Compound 9], the negative logarithm of the IC50 (pIC50) is over 7.00 on PRMT1 (setting [1]), 7.81 at PRMT1 (setting [2]), over 7.00 on PRMT6 (setting [3]) and 8.17 at PRMT6 (setting [4]).
On to `CN(CCN)Cc1[nH]cnc1-c1ccc(C#N)cc1` [Compound 10, 4-(5-(((2-aminoethyl)(methyl)amino)methyl)-1H-imidazol-4-yl)benzonitrile], for which the pIC50 was 6.00 to 7.00 on PRMT1 (setting [1]), 6.67 on PRMT1 (setting [2]), 6.00 to 7.00 on PRMT6 (setting [3]) and 6.77 at PRMT6 (setting [4]).

The record behind these values is patent US20160031839A1, “ARGININE […] INHIBITORS AND USES THEREOF” (EPIZYME, INC., priority 2013, published 2016).
